Reference: patent US11739098B2 (BRISTOL-MYERS SQUIBB COMPANY, priority 2017, dated 2023)

Experiments:
Assay type in all cases: cell-based
[1] = biological target: T1, human TLR8 (Homo sapiens, UniProt Q9NR97); test: TLR8 inhibition reporter assay (HEK-Blue cells, SEAP reporter, R848 stimulation); settings: HEK-Blue cells overexpressing human TLR8, SEAP reporter, R848 15.9 μM
T1 construct: host or cells: HEK-Blue cells (HEK293-derived reporter line)
T1 sequence (Q9NR97 27-1041): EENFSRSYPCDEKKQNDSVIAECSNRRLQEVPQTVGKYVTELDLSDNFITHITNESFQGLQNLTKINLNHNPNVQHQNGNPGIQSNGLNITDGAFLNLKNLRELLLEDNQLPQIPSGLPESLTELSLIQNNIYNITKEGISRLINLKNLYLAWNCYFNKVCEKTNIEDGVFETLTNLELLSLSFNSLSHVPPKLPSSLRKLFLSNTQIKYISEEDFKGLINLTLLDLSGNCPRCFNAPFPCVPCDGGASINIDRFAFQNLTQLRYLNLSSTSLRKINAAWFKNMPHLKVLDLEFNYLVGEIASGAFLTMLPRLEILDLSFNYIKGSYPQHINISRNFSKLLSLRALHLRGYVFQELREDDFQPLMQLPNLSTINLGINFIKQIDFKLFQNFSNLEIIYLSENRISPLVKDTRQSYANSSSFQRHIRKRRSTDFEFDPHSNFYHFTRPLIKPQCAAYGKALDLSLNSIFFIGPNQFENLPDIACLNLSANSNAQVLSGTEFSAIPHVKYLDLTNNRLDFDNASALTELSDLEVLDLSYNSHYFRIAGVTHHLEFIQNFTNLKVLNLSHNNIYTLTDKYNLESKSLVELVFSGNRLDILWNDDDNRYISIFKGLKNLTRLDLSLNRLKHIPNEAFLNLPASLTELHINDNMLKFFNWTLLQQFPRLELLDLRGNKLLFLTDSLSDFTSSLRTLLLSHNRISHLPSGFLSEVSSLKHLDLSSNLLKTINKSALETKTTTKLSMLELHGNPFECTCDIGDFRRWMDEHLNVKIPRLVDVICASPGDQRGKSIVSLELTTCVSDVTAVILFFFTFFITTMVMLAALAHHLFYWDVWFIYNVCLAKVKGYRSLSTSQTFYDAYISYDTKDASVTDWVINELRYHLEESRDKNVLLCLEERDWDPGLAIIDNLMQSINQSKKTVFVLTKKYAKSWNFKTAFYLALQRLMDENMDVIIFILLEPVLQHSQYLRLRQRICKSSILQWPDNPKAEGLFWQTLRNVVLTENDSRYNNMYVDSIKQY
Outline: (§1)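 HEK-Blue cells overexpressing human TLR7, TLR8 or TLR9 (NF-κB/AP-1-driven SEAP) pre-treated 30 min at room temperature with compound (0.05 nM–50 μM), then stimulated with gardiquimod 7.5 μM (TLR7), R848 15.9 μM (TLR8) or ODN2006 5 nM (TLR9). SEAP read colorimetrically after 22 h at 37 °C; % inhibition calculated.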

[2] = biological target: T2, human TLR7 (Homo sapiens, UniProt Q9NYK1); test: TLR7 inhibition reporter assay (HEK-Blue cells, SEAP reporter, gardiquimod stimulation); settings: HEK-Blue cells overexpressing human TLR7, SEAP reporter, gardiquimod 7.5 μM
T2 construct: host or cells: HEK-Blue cells (HEK293-derived reporter line)
T2 sequence (Q9NYK1 27-1049): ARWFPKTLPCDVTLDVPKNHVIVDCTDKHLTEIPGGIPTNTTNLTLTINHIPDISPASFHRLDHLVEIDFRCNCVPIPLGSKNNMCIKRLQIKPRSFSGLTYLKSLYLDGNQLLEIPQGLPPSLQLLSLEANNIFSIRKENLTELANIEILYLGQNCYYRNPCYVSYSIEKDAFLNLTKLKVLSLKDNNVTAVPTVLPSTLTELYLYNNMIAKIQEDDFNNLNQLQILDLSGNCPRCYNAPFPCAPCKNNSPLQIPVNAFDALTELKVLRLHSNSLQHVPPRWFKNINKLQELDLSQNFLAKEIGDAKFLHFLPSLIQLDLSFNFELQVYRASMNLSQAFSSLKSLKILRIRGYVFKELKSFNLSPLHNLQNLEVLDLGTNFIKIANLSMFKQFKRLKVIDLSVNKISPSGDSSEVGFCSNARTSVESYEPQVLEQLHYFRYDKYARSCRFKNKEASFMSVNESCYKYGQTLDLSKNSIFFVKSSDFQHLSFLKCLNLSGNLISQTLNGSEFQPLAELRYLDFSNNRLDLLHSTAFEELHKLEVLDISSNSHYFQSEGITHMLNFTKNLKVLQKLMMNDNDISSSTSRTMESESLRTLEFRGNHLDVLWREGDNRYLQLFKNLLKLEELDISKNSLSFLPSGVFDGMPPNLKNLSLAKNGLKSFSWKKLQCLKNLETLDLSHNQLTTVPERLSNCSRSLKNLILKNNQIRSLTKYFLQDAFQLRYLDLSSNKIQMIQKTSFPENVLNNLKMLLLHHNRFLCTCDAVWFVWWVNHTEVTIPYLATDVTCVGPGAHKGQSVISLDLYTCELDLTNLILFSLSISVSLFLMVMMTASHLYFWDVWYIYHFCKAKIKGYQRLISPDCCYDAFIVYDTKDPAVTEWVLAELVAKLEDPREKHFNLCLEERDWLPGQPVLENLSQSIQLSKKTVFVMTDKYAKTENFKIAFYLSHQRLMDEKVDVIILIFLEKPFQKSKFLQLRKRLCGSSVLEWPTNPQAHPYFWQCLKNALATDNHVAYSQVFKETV
Outline: as §1

[3] = biological target: T3, human TLR9 (Homo sapiens, UniProt Q9NR96); test: TLR9 inhibition reporter assay (HEK-Blue cells, SEAP reporter, ODN2006 stimulation); settings: HEK-Blue cells overexpressing human TLR9, SEAP reporter, ODN2006 5 nM
T3 construct: host or cells: HEK-Blue cells (HEK293-derived reporter line)
T3 sequence (Q9NR96 26-1032): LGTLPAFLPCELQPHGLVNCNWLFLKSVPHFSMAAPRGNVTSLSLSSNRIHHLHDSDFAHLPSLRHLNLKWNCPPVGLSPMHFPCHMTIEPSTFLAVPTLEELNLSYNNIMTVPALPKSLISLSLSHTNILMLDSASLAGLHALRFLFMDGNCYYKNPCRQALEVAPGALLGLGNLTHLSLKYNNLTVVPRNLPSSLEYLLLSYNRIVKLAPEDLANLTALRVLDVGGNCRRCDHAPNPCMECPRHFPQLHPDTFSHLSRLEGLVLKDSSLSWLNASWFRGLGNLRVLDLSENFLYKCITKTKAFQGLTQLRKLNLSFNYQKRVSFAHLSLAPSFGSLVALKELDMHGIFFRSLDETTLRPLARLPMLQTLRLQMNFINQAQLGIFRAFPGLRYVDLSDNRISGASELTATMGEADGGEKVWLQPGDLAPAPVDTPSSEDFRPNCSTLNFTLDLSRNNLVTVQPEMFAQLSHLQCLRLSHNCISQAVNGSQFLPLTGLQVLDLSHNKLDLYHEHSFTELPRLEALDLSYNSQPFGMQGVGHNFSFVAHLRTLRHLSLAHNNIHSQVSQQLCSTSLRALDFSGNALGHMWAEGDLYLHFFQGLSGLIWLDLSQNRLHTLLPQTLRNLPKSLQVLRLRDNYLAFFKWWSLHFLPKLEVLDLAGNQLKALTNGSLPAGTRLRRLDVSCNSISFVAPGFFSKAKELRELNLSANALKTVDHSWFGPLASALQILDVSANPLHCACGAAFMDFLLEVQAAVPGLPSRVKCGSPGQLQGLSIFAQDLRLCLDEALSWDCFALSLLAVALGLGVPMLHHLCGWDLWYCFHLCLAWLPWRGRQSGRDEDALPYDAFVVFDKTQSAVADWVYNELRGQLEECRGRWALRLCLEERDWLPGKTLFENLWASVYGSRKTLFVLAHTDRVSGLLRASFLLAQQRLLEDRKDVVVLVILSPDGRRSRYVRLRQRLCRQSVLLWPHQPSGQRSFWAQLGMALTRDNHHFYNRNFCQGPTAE
Outline: as §1

Row | SMILES | IC50 [1] [nM] | IC50 [2] [nM] | IC50 [3] [nM]
1 | COc1c(C)c(-c2[nH]c3ccc(C4CCN(CC(=O)N(C)C)CC4)cc3c2C(C)C)nn2ncnc12 [Example 282, 2-(4-(3-isopropyl-2-(8-methoxy-7-methyl-[1,2,4]triazolo[1,5-b]pyridazin-6-yl)-1H-indol-5-yl)piperidin-1-yl)-N,N-dimethylacetamide] | < 100 | < 100 | 1000 to 50000
2 | CCc1c(-c2ccc3[nH]c(=O)oc3c2)[nH]c2ccc(C3CCNCC3)cc12 [Example 167, 6-(3-ethyl-5-(piperidin-4-yl)-1H-indol-2-yl)benzo[d]oxazol-2(3H)-one] | 100 to 1000 | 100 to 1000 | 100 to 1000
3 | Cc1cc(-c2[nH]c3ccc(C4CCN(C(=O)CCN5CCOCC5)CC4)cc3c2C(C)C)cn2nnnc12 [Example 627, 1-(4-(3-isopropyl-2-(8-methyltetrazolo[1,5-a]pyridin-6-yl)-1H-indol-5-yl)piperidin-1-yl)-3-morpholinopropan-1-one] | < 100 | < 100 | 1000 to 50000
4 | CC(C)c1c(-c2cc(N)nc3[nH]cnc23)[nH]c2ccc(C3CCNCC3)cc12 [Example 228, 7-(3-isopropyl-5-(piperidin-4-yl)-1H-indol-2-yl)-3H-imidazo[4,5-b]pyridin-5-amine] | < 100 | < 100 | 100 to 1000
5 | Cc1nc[nH]c1CN1CCC(c2ccc3[nH]c(-c4ccnc5[nH]ncc45)c(C(C)C)c3c2)CC1 [Example 864, 4-(3-isopropyl-5-(1-((4-methyl-1H-imidazol-5-yl)methyl)piperidin-4-yl)-1H-indol-2-yl)-1H-pyrazolo[3,4-b]pyridine] | < 100 | < 100 | 100 to 1000
6 | CN(C)C(=O)CN1CCC(c2ccc3[nH]c(-c4cc(F)c5nccn5c4)c(CC(F)F)c3c2)CC1 [Example 409, 2-(4-(3-(2,2-difluoroethyl)-2-(8-fluoroimidazo[1,2-a]pyridin-6-yl)-1H-indol-5-yl)piperidin-1-yl)-N,N-dimethylacetamide] | 100 to 1000 | < 100 | 1000 to 50000
7 | CC(C)c1c(-c2ccc3ncnn3n2)[nH]c2ccc(C3CCNCC3)cc12 [Example 242, 6-(3-isopropyl-5-(piperidin-4-yl)-1H-indol-2-yl)-[1,2,4]triazolo[1,5-b]pyridazine] | < 100 | < 100 | 1000 to 50000
8 | Cc1cc(-c2[nH]c3ccc(C4CCNCC4)cc3c2C(C)C)cn2nncc12 [Example 70, 6-(3-isopropyl-5-(piperidin-4-yl)-1H-indol-2-yl)-4-methyl-[1,2,3]triazolo[1,5-a]pyridine] | 100 to 1000 | 100 to 1000 | 1000 to 50000

Second part, the compound after the results:

Row | IC50 [1] [nM] | IC50 [2] [nM] | IC50 [3] [nM] | SMILES
9 | < 100 | < 100 | 100 to 1000 | CC(C)c1c(-c2ccnc3[nH]ncc23)[nH]c2ccc(C3CCN(Cc4ccc(N5CCN(C)CC5)cc4)CC3)cc12 [Example 919, 4-(3-isopropyl-5-(1-(4-(4-methylpiperazin-1-yl)benzyl)piperidin-4-yl)-1H-indol-2-yl)-1H-pyrazolo[3,4-b]pyridine]
10 | > 50000 | > 50000 | 1000 to 50000 | CCc1c(-c2cccc3c2cnn3C)[nH]c2ccc(C3CCN(C(=O)CN(C)C)CC3)cc12 [Example 520, 2-(dimethylamino)-1-(4-(3-ethyl-2-(1-methyl-1H-indazol-4-yl)-1H-indol-5-yl)piperidin-1-yl)ethan-1-one]
11 | 100 to 1000 | 100 to 1000 | 100 to 1000 | CC(C)c1c(-c2ccc3c(N)noc3c2)[nH]c2ccc(C3CCNCC3)cc12 [Example 86, 6-(3-isopropyl-5-(piperidin-4-yl)-1H-indol-2-yl)benzo[d]isoxazol-3-amine]
12 | 100 to 1000 | 1000 to 50000 | 1000 to 50000 | CC(C)c1c(-c2n[nH]c3nc[nH]c(=O)c23)[nH]c2ccc(C3CCNCC3)cc12 [Example 21, 3-(3-isopropyl-5-(piperidin-4-yl)-1H-indol-2-yl)-1,5-dihydro-4H-pyrazolo[3,4-d]pyrimidin-4-one]
13 | > 3130 | > 50000 | 1000 to 50000 | CNCCN1CCC(c2ccc3[nH]c(-c4ccc5c(c4)OCCN5C)c(C)c3c2)CC1 [Example 673, N-methyl-2-(4-(3-methyl-2-(4-methyl-3,4-dihydro-2H-benzo[b][1,4]oxazin-7-yl)-1H-indol-5-yl)piperidin-1-yl)ethan-1-amine]
14 | 1000 to 50000 | 100 to 1000 | 100 to 1000 | CC(C)c1c(-c2ccc3scnc3c2)[nH]c2ccc(C3CCNCC3)cc12 [Example 12, 5-(3-isopropyl-5-(piperidin-4-yl)-1H-indol-2-yl)benzo[d]thiazole]
15 | > 3130 | 1000 to 50000 | 100 to 1000 | CNCCN1CCC(c2ccc3[nH]c(-c4cncc5ccccc45)c(C)c3c2)CC1 [Example 663, 2-(4-(2-(isoquinolin-4-yl)-3-methyl-1H-indol-5-yl)piperidin-1-yl)-N-methylethan-1-amine]
